Assay results reported in US20240358684A1, “METHOD FOR ENHANCING INNATE IMMUNE RESPONSE” (Kyoto University, priority 2021, published 2024).

How the values were obtained:
[1] = system: OAS1 exon 5 splice donor (SD) sequence; assay: RNA pull-down assay with OAS1 exon 5 splice donor RNA and western blot; format: binding, human; details: Calu-3 cell lysate, 10 μM
Experimental: Calu-3 whole cell lysates were prepared using a lysis buffer containing 10 mM Tris-HCl (pH 7.4), 150 mM NaCl, 1 mM ethylenediaminetetraacetic acid, 1% Triton X-100, 0.1% sodium dodecyl sulphate, 0.25% sodium deoxycholate, and 10% glycerol with protease inhibitors (Nacalai Tesque) and phosphatase inhibitors (Sigma-Aldrich, Munich, Germany), followed by sonication, treatment with DNase I (Promega. Madison, WI, USA) at 37° C. for 5 min, and centrifugation (24,000×g at 4° C. for 15 min). The supernatant was used as the soluble fraction for the RNA-pull down assay. […] This was followed by washing the resultant thrice with tris-buffered saline and elution with Laemmli buffer. Three technical replicates for RNA pull-down assay were independently conducted, three times from a stocked cell lysate. […] Chemiluminescent signals were detected using a ChemiDoc MP Imaging System (Bio-Rad, Hercules, CA, USA).

[2] = system: OAS1 splice variants; assay: RNA-Seq splice-junction reads for OAS1 splice variants in Calu-3 cells; format: cell-based, human; details: Calu-3, 10 μM, 18 h
Experimental: (§1) Transcriptome analysis for compound 1-treated Calu-3 cells RNAs were extracted using RNeasy Mini kit (QIAGEN, Hilden, Germany) from Calu-3 cells, treated with 10 μM compound 1 or 0.1% DMSO for 18 h, and applied for RNA-Seq analysis. Three technical replicates for RNA-Seq, where each experiment was independently conducted three times from a stocked total RNA. RNA-seq reads were mapped to the human genome sequences (GRCh38) using STAR (ver. 2.7.1a, https://github.com/alexdobin/STAR) with ENCODE options, using the Ensembl genome annotation (ver. 102). Raw reads were counted with bam files, and TPM values were calculated using RSEM v1.2.31 (https://github.com/deweylab/RSEM). Differentially expressed genes were identified using the method described above. Differential alternative splicing (DAS) events were analyzed with the method previously described (Sakuma et al., 2015) using the rMATS program (http://rnaseq-mats.sourceforge.net/rmats4.1.1/). DAS was defined by the following criteria: FDR<0.01, read counts≥15, and delta Percent Spliced-In (PSI)≥0.05. The DAS events were compared with the gene annotation information, the event types were then classified into events on the exons constituting the productive mRNAs, events on additional exons/regions of the productive mRNAs, and others. For characterizing gene set and transcriptome profiles, the Metascape website (https://imetascape.org/) and Gene Set Enrichment Analysis (GSEA, https://ww.gsea-maigdb.org/gsea/) were used. The same samples were also used for RT-PCR.

[3] = system: RNase L pathway (rRNA degradation)
[4] = system: OAS1 rs10774671 A-allele splicing; assay: RT-PCR for OAS1 alternative splicing profile in Calu-3 (A/A allele) cells; format: cell-based, human; details: Calu-3, 10 μM, 24 h
[5] = system: IFNB1; format: cell-based, human
[6] = molecular target: T1, CLK1 (Homo sapiens, UniProt P49759); assay: Inhibition confirmation test for CLK (off-chip mobility shift assay); format: biochemical; details: ATP 10 μM; read-out: CLK1 inhibitory activity (IC50 value)
T1 construct: Enzyme activity was measured with off-chip mobility shift assay using purified CLK protein
Experimental: Enzyme activity was measured with off-chip mobility shift assay using purified CLK protein. […] The enzyme reaction was performed at room temperature for 1 hour, and the reaction was terminated by adding QuickScout Screening Assist MSA (Carna Biosciences, Inc.). A substrate peptide and a phosphorylated peptide in the enzyme reaction solution were separated and quantified using the LabChip system (Perkin-Elmer, Waltham, MA, USA), and inhibition of CLK was evaluated by calculating a product ratio using the following formula, the substrate peptide peak height (S), and the phosphorylated peptide peak height (P).
(P/(P+S)) • P: product-derived peak • S: substrate-derived peak

[7] = system: Calu-3 cells; assay: Transcriptome analysis (RNA-Seq, differential expression and differential alternative splicing) of compound 1-treated Calu-3 cells; format: cell-based, human; details: 18 h; for delta PSI: 10 μM
Experimental: as §1

T1 sequence (P49759 whole entry): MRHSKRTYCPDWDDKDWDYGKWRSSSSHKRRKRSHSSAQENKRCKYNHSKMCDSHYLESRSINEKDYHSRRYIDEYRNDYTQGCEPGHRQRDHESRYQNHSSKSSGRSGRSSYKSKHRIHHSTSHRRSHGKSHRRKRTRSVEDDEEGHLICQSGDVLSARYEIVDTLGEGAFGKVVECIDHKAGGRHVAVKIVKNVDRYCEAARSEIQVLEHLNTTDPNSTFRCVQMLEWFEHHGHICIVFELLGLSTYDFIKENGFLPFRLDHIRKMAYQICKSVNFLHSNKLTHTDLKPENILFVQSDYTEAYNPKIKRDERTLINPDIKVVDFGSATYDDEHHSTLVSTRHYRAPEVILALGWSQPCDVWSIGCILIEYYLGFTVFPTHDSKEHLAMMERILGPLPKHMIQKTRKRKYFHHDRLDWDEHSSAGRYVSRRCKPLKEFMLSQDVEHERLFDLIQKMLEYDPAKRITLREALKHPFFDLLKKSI

N=C1NC(=O)/C(=C/c2ccc3c(c2)CCO3)S1 [compound 1]
U1snRNP (U1-70k) binding to OAS1 exon 5 donor site [1]: enhanced | phosphorylated SRSF6 in OAS1 SD pull-down products [1]: not detected | p42 variant suppressed (RNA-Seq) [2]: 51% | p44a variant increased (RNA-Seq) [2]: 130% | p44b variant increased (RNA-Seq) [2]: 100% | 28S rRNA peak fold change [3]: 0.56 | concentration of decomposition products, sized 2,000-3,000 nucleotides, fold change [3]: 1.35 | splice-switching for OAS1 with the A-allele (RT-PCR) [4]: suppressing p42 splicing while promoting p44a and p44b variant production | transcription of IFNB1 during viral infection [5]: increases | IC50 [6]: 21.6 nM | delta PSI ([7]; AAMP Intron between E5-E7 RI): −0.307 | delta PSI ([7]; AC107871.1 E2-E3 SE additional exon): −0.333 | delta PSI ([7]; AL117339.4 E2 SE): 0.318 | delta PSI ([7]; AL136531.2 E2-E3 SE additional exon): −0.418 | delta PSI ([7]; AL163636.1 E2 SE): 0.331 | delta PSI ([7]; APOL1 E3 A3SS): −0.448 | delta PSI ([7]; CABYR E4 A5SS): 0.309 | delta PSI ([7]; CDK5RAP2 E32 SE): 0.313 | delta PSI ([7]; CENPE E17 SE): 0.422 | delta PSI ([7]; CFAP298 Intron between E5-E7 RI): −0.451 | delta PSI ([7]; CLK1 E4 SE): 0.331 | delta PSI ([7]; CLK4 E4 SE): 0.37 | delta PSI ([7]; CLK4 Intron between E3-E4 RI): −0.346 | delta PSI ([7]; CLK4 Intron between E4-E5 RI): −0.401 | delta PSI ([7]; CYLD E2-E3 SE additional exon): −0.307 | differential expression, number of genes ([7]; Calu-3, 10 μM): 98 genes | splice alterations yielding protein-coding variants, number of genes ([7]; Calu-3, 10 μM): 63 genes | delta PSI ([7]; DCUN1D2 E4-E5 SE additional exon): −0.438 | delta PSI ([7]; DMD E71 SE): 0.365 | delta PSI ([7]; DNHD1 Intron between E42-E43 RI): −0.31 | delta PSI ([7]; DNM1 E14 SE): 0.342 | delta PSI ([7]; DYNC1LI1 Intron between E8-E10 RI): −0.778 | delta PSI ([7]; EPB41 E16-E17 SE additional exon): −0.301 | delta PSI ([7]; FAAP100 E2 A5SS): −0.318 | delta PSI ([7]; GALT Intron between E2-E6 RI): −0.374 | delta PSI ([7]; GK E9 SE): 0.322 | delta PSI ([7]; HAT1 Intron between E6-E8 RI): −0.584 | delta PSI ([7]; HERC3 E17 SE): 0.309 | delta PSI ([7]; HERC4 E17 SE): 0.38 | delta PSI ([7]; IMPDH2 Intron between E3-E5 RI): −0.376 | delta PSI ([7]; KANSL3 E3 A3SS): −0.309 | delta PSI ([7]; KTN1 E41 SE): 0.304 | delta PSI ([7]; LIMCH1 E9 SE): 0.42 | delta PSI ([7]; LRP8 E5 SE): 0.392 | delta PSI ([7]; LRRC6 E5 SE): 0.391 | delta PSI ([7]; LRRC75B E1-E2 SE additional exon): −0.338 | delta PSI ([7]; MAP3K7 E12 SE): 0.404 | delta PSI ([7]; MCTP1 E8 SE): 0.367 | delta PSI ([7]; METTL26 E2 SE): 0.3 | delta PSI ([7]; MON2 E28 SE): 0.345 | delta PSI ([7]; MPP3 E11 SE): 0.32 | delta PSI ([7]; MSL3 Intron between E4-E6 RI): −0.485 | delta PSI ([7]; MYO6 E34 SE): 0.405 | delta PSI ([7]; MYOM1 E18 SE): 0.344 | delta PSI ([7]; NAV2 E28 SE): 0.437 | delta PSI ([7]; NEK1 E17 SE): 0.367 | delta PSI ([7]; NGDN Intron between E4-E7 RI): −0.302 | delta PSI ([7]; OBSL1 E12 SE): 0.369 | delta PSI ([7]; PCGF3 E3-E4 SE additional exon): −0.318 | delta PSI ([7]; PDE9A E5 SE): 0.378 | delta PSI ([7]; PI4KB E2 SE): 0.421 | delta PSI ([7]; PNKP Intron between E14-E16 RI): −0.3 | delta PSI ([7]; PPM1K E2 SE): 0.317 | delta PSI ([7]; RBPMS E8 SE): 0.301 | delta PSI ([7]; RPGR E14 SE): 0.448 | delta PSI ([7]; RPL3 Intron between E7-E9 RI): −0.381 | delta PSI ([7]; RPL13A Intron between E2-E4 RI): −0.654 | delta PSI ([7]; RTN4 E3 SE): 0.361 | delta PSI ([7]; SAMD9L Partial Intron on E3 RI): 0.364 | delta PSI ([7]; SLC25A29 E2-E3 SE additional exon): −0.314 | delta PSI ([7]; SMARCA1 E13 SE): 0.367 | delta PSI ([7]; SNX14 E16 SE): 0.336 | delta PSI ([7]; SPATA20 E1-E2 SE additional exon): −0.319 | delta PSI ([7]; TRIM2 E2 SE): 0.372 | delta PSI ([7]; TRMU Intron between E9-E11 RI): −0.333 | delta PSI ([7]; WNK1 E11 SE): 0.517 | delta PSI ([7]; ZNF519 E3 A3SS): 0.316
